The values that follow come from patent US20190316211A1, “ONCOGENIC ALTERNATIVE SPLICING SWITCH OF PACE4 IN CANCER” (SOCIETE DE COMMERCIALISATION DES PRODUITS DE LA RECHERCHE …, priority 2016, published 2019).

In one series the test system is PACE4 secretion. Briefly: PACE4 secretion assay with post-translational modification inhibitors. The settings on record: 24 h secretion in presence of agent. The series is classed as cell-based. The source says: Immunoprecipitations on transiently transfected HEK293-FT cells were subjected to Sequential Window Acquisition of all Theoretical Mass Spectra (SWATH-MS)-based analysis (FIGS. 7F and G). Proteins identified in each pull-down were used to compare enrichment between the two different isoforms. Both isoforms pulled-down endoplasmic reticulum (ER) proteins with similar enrichment. The two isoforms had clearly different patterns when it came to endosomal compartments-associated proteins such as Arf6, Rab13 or Vps16 with PACE4-altCT pull-down displaying the higher enriched levels for these proteins. […] Considering the slight substitution caused by the splicing in the protein primary structure (FIG. 7A), PTM prediction tools were used to evaluate whether distinctive PTM motifs could be found in the alternative C-terminus compared to the FL one. The predicted PTM sites that scored the highest were S-palmitoylation, non-consensual S-farnesylation and S-geranylgeranylation on the Cys cluster added at the C-terminal extremity of the protein ([…]; see FIG. 8A).
For PACE4 secretion assays, cells were plated at equal densities in 6-well plates for 24 h in complete medium. 24 h later, the medium was replaced by the minimal volume required of fresh culture medium (600 μL without FBS) and the cells were either allowed to secrete for the indicated time (for secretion kinetics) or (for inhibitor treatments) allowed to secrete for an additional 24 h in the presence of the indicated concentrations of agents (heparin (Sandoz, Niirnberg, Germany), 2-bromopalmitate (Sigma Aldrich), FTI-277 (Sigma Aldrich), GGTI-2133 (Santa Cruz Biotechnology Inc., Santa Cruz, Calif., USA)

In the next series the test system is IGF1R. Briefly: Western blot of PC substrate processing in inhibitor-treated DU145 and LNCaP lines. It counts as cell-based. The note with it: 50 μM, 48 h. As to the method:
(§1) Western blotting were carried out of (i) cell lines silenced with shPACE4, shfurin and shPC7, (ii) cell lines stably expressing PACE4-FL and PACE4-altCT and (iii) cell lines treated with either the non-selective and irreversible PC inhibitor decanoyl-RVKR-chloromethylketone (CMK) or the PACE4 high affinity peptide inhibitor [dLeu]LLLRVK-amidinobenzylamide (Amba; dL-ML-Amba), herein after called C23 (Levesque et al., 2015, Oncotarget, 6: 3680-3693). In order to test the western blot arrays, known PC substrates were chosen, namely, the insulin-like growth factor 1 receptor (IGF1R) and integrin alpha-6 (ITGA6); two well-accepted furin substrates, were evaluated (FIGS. 10A and B) and E-cadherin. […] In contrast, the overexpression of PACE4-FL and PACE4-altCT did increase the processing of IGF1R and ITGA6 pro-forms, highlighting the cautionary interpretation that are needed in overexpression studies.
(§2) For substrates analysis, cell lysates were prepared by plating equal number of cells in p100 mm plates in complete medium. 24 h later, medium was replaced by 6 mL of serum-free fresh medium (with treatment if indicated; 50 μM of dL-ML-Amba or dec-RVKR-CMK (Bachem, Torrance, Calif.) and cells were further incubated 48 h. Medium was then collected and centrifuged at 1,000×g for 10 min at room temperature to remove any floating cells, aliquot of medium were then taken (800 μL), flash-frozen in liquid nitrogen, lyophilized overnight, restituted in 100 μL of Laemmli buffer: 8M urea (1:1) and boiled for 5 min until complete resuspension. 25 μL of concentrated medium were loaded on SDS-PAGE (equivalent of 200 μL of culture medium). Cells were carefully washed with PBS and lysed from cell pellet (resulting from 1,000×g centrifugation) using radio-immunoprecipitation assay buffer (RIPA) as described in (Couture et al., 2012). Samples were incubated 20 min on ice and further centrifuged 30 min at 13.000 rpm at 4° C. Protein concentration was determined by bicinchoninic acid assay (Pierce) to load 15 μg on polyacrylamide gels. […] was used as a loading control, for conditioned media, a Coomassie blue staining was routinely performed to control for protein loading.
(In general: Immunoblotting shows a protein as a band on a membrane.)

The next series relates to ITGA6. Described as above. The series is classed as cell-based. The note with it: 50 μM, 48 h. As for the experimental part: as §1, §2
Another series relates to GDF-15 in LNCaP cells. Briefly: GDF-15 cleavage and secretion analysis (western blot, ELISA). The series is classed as cell-based. The note with it: treated LNCaP cells, western blot array and ELISA. The source says:
FIG. 10 illustrates the identification and validation of GDF-15 as a PACE4-specific substrate in prostate cancer cells, showing in (A) Western blots of candidate PC substrates across the knockdown, overexpressing and inhibitor-treated DU145 and LNCaP (B) lines; (C) expression of GDF-15 in DU145 and LNCaP cells showing that mature GDF-15 is secreted in the medium; (D) GDF-15 concentrations in DU145 and LNCaP conditioned medium determined by ELISA; (E) GDF-15 cleavage analysis in the LNCaP cells panel; (F) GDF-15 concentrations in the conditioned medium determined by ELISA; (G) GDF-15 cleavage analysis in LNCaP treated with either the ML-peptide or the cell impermeable analog (PEG8-ML); (H) GDF-15 spanning peptide cleavage by PACE4 and furin monitored by HPLC, cleavage site is underlined in the spanning peptide sequence, peptide identity was confirmed by MALDI-TOF upon collection of associated fractions; (I) Western blot analysis of paired adjacent non-cancerous tissues (ANCT) and prostate tissues (PCa); and (J) a blot showing various cancer grades is shown together with the densitometric analysis of 21 tissues pairs (n=6 (3+3), 7 (3+4), 6 (4+3), 2 (5+X) X being 3 and 4).
GDF-15 is known to supports both the proliferation and clonogenic potential of LNCaP cells, which is also in line with the observed phenotypes for both PACE4 knockdown and overexpressing cells. […]

The target of series [1] is growth differentiation factor 15 (human) (UniProt Q99988). Description: cell-based or functional assay.
growth differentiation factor 15 (human), sequence (Q99988 195-308): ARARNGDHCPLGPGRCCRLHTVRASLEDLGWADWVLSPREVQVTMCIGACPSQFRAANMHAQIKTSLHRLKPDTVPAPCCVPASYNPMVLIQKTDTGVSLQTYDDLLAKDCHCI
Series [2] addresses Multi-Leucine (ML) peptide.

For `CC(C)C[C@H](NC(=O)c1ccc(NCc2cnc[nH]2)cc1-c1cccc2ccccc12)C(=O)O` [GGTI-2133], the “variation in secretion levels” value with PACE4 secretion is listed as “without any significant variation”.

As for `CCCCCCCCCCCCCCC(Br)C(=O)O` (stereo not drawn) [2-BP, 2-bromopalmitate], in the series on PACE4 secretion, the “variation in secretion levels” value is “without any significant variation”.

Consider `COC(=O)[C@H](CCSC)NC(=O)c1ccc(NC[C@@H](N)CS)cc1-c1ccccc1` [FTI-277], for which the “variation in secretion levels” value with PACE4 secretion is “without any significant variation”.

As to [dLeu]LLLRVK-amidinobenzylamide [C23], the “processing of IGF1R pro-form” value with IGF1R is on record as “no effect”. The “processing of ITGA6 pro-form” value in the series with ITGA6 is reported as “no effect”. In the series on GDF-15 in LNCaP cells, the “GDF-15 observed in the medium” value is reported as “virtually no pro-GDF-15 could be observed”.

Regarding decanoyl-RVKR-chloromethylketone [CMK], the “processing of IGF1R pro-form” value in the series on IGF1R is “prevented the processing”. In the series with ITGA6, the “processing of ITGA6 pro-form” value is reported as “prevented the processing”. Further, in the series on GDF-15 in LNCaP cells, the “GDF-15 observed in the medium” value is “virtually no pro-GDF-15 could be observed”.

For “PACE4-FL (from UniProt P29122 150-969) (enzyme)”, the amount of secreted GDF-15 in conditioned medium (ELISA) (times higher than pLenti6 control cells) in series [1] was determined as 5.

B1: V5-tagged PACE4-altCT (protein)
chain: QVRSDPQALYFNDPIWSNMWYLHCGDKNSRCRSEMNVQAAWKRGYTGKNVVVTILDDGIERNHPDLAPNYDSYASYDVNGNDYDPSPRYDASNENKHGTRCAGEVAASANNSYCIVGIAYNAKIGGIRMLDGDVTDVVEAKSLGIRPNYIDIYSASWGPDDDGKTVDGPGRLAKQAFEYGIKKGRQGLGSIFVWASGNGGREGDYCSCDGYTNSIYTISVSSATENGYKPWYLEECASTLATTYSSGAFYERKIVTTDLRQRCTDGHTGTSVSAPMVAGIIALALEANSQLTWRDVQHLLVKTSRPAHLKASDWKVNGAGHKVSHFYGFGLVDAEALVVEAKKWTAVPSQHMCVAASDKRPRSIPLVQVLRTTALTSACAEHSDQRVVYLEHVVVRTSISHPRRGDLQIYLVSPSGTKSQLLAKRLLDLSNEGFTNWEFMTVHCWGEKAEGQWTLEIQDLPSQVRNPEKQGKLKEWSLILYGTAEHPYHTFSAHQSRSRMLELSAPELEPPKAALSPSQVEVPEDEEDYTAQSTPGSANILQTSVCHPECGDKGCDGPNADQCLNCVHFSLGSVKTSRKCVSVCPLGYFGDTAARRCRRCHKGCETCSSRAATQCLSCRRGFYHHQEMNTCVTLCPAGFYADESQKNCLKCHPSCKKCVDEPEKCTVCKEGFSLARGSCIPDCEPGTYFDSELIRCGECHHTCGTCVGPGREECIHCAKNFHFHDWKCVPACGEGFYPEEMPGLPHKVCRRCDENCLSCAGSSRNCSRCKTGFTQLGTSCITNHTCSNGDIWQRLETFWVVTTGRMYSHPVGGGQECC
As for B1, the “enzymatic activity (cleavage of the fluorogenic substrate Pyr-Arg-Thr-Lys-Arg-methylcoumaryl-7-amide)” value in series [2] is “both isoforms were still equally inhibited by the Multi-Leucine (ML) peptide”.

B2: V5-tagged PACE4-FL (protein)
chain: QVRSDPQALYFNDPIWSNMWYLHCGDKNSRCRSEMNVQAAWKRGYTGKNVVVTILDDGIERNHPDLAPNYDSYASYDVNGNDYDPSPRYDASNENKHGTRCAGEVAASANNSYCIVGIAYNAKIGGIRMLDGDVTDVVEAKSLGIRPNYIDIYSASWGPDDDGKTVDGPGRLAKQAFEYGIKKGRQGLGSIFVWASGNGGREGDYCSCDGYTNSIYTISVSSATENGYKPWYLEECASTLATTYSSGAFYERKIVTTDLRQRCTDGHTGTSVSAPMVAGIIALALEANSQLTWRDVQHLLVKTSRPAHLKASDWKVNGAGHKVSHFYGFGLVDAEALVVEAKKWTAVPSQHMCVAASDKRPRSIPLVQVLRTTALTSACAEHSDQRVVYLEHVVVRTSISHPRRGDLQIYLVSPSGTKSQLLAKRLLDLSNEGFTNWEFMTVHCWGEKAEGQWTLEIQDLPSQVRNPEKQGKLKEWSLILYGTAEHPYHTFSAHQSRSRMLELSAPELEPPKAALSPSQVEVPEDEEDYTAQSTPGSANILQTSVCHPECGDKGCDGPNADQCLNCVHFSLGSVKTSRKCVSVCPLGYFGDTAARRCRRCHKGCETCSSRAATQCLSCRRGFYHHQEMNTCVTLCPAGFYADESQKNCLKCHPSCKKCVDEPEKCTVCKEGFSLARGSCIPDCEPGTYFDSELIRCGECHHTCGTCVGPGREECIHCAKNFHFHDWKCVPACGEGFYPEEMPGLPHKVCRRCDENCLSCAGSSRNCSRCKTGFTQLGTSCITNHTCSNADETFCEMVKSNRLCERKLFIQFCCRTCLLAG
Turning to B2, the “enzymatic activity (cleavage of the fluorogenic substrate Pyr-Arg-Thr-Lys-Arg-methylcoumaryl-7-amide)” value in series [2] is “both isoforms were still equally inhibited by the Multi-Leucine (ML) peptide”.
